Laboratory results from patent US7521528B2, “Conformationally constrained parathyroid hormone (PTH) analogs with lactam bridges” (The General Hospital Corporation, priority 2003, dated 2009).
“Also recorded” adds a separate entry of the source. Positions of bridges follow the written chain, without caps; N, C: chain ends. Non-standard residues stand in square brackets, D forms with d. Residues, ends and D or L forms follow the SMILES beside them. hArg = N=C(N)NCCCC[C@H](N)C(=O)O

How the values were obtained:
Format in all cases: cell-based
[1] = molecular target: T1, recombinant full-length P1R (Homo sapiens, UniProt Q03431); experiment: cAMP stimulation in HKRK-B28 cells; details: for Emax: percent of maximum response of PTH(1-14), Table 3; for capacity to stimulate cAMP formation at a single dose: 10 μM
T1 construct: expressed in transfected cells
T1 sequence (Q03431 27-593): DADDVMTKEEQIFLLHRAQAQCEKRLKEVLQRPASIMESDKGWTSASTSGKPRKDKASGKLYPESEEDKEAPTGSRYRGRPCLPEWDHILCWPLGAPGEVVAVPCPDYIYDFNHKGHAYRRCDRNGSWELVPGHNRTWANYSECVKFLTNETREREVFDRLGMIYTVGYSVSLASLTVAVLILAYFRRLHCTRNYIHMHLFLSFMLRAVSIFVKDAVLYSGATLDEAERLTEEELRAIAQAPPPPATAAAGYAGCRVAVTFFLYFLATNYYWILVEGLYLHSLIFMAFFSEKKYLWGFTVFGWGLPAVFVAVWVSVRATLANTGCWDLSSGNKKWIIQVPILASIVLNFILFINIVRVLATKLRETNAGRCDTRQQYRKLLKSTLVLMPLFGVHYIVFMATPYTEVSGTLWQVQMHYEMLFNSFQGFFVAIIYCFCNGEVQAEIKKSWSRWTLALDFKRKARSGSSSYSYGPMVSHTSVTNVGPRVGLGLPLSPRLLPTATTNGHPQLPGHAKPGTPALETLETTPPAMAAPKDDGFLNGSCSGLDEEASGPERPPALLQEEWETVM
Protocol: Cell Culture. The cell line HKRK-B28 (Takasu, H., et al., J. Bone Miner. Res. 14:11-20 (1999)) was derived from the porcine kidney cell line, LLC-PK1 by stable transfection with plasmid DNA encoding the full-length P1R and expresses ˜280,000 receptors per cell. These cells, as well as COS-7 cells and SaOS-2-B10 cells, were cultured at […] in T-75 flasks ([…]) in Dulbecco's modified Eagle's medium (DMEM) supplemented with fetal bovine serum (10%), penicillin G (20 units/ml), streptomycin sulfate (20 μg/ml) and amphotericin B (0.05 μg/ml) in a humidified atmosphere containing 5% CO2. Stock solutions of EGTA/trypsin and antibiotics were from GIBCO; fetal bovine serum was from Hyclone Laboratories (Logan, Utah). COS-7 cells sub-cultured in 24-well plates were transfected with plasmid DNA (200 ng per well) encoding the wild-type human P1R or truncated human P1R deleted for residues (24-181) (Shimizu, M., et al., J. Biol. Chem. 275:21836-21843 (2000)) that was purified by cesium chloride/ethidium bromide density gradient centrifugation, and FuGENE 6 transfection reagent (Roche Indianapolis Ind.) according to the manufacturer's recommended procedure. All cells, in 24-well plates, were treated with fresh media and shifted to 33° C. for 12 to 24 h prior to assay.
(§1) cAMP Stimulation. Stimulation of cells with peptide analogs was performed in 24-well plates. Cells were rinsed with 0.5 mL of binding buffer (50 mM Tris-HCl, 100 mM NaCl, 5 mM KCl, 2 mM CaCl2, 5% heat-inactivated horse serum, 0.5% fetal bovine serum, adjusted to pH 7.5 with HCl) and treated with 200 μL of cAMP assay buffer (Delbecco's modified Eagle's medium containing 2 mM 3-isobutyl-1-methylxanthine, 1 mg/mL bovine serum albumin, 35 mM Hepes-NaOH, pH 7.4) and 100 μL of binding buffer containing varying amounts of peptide analog (final volume=300 μL). The medium was removed after incubation for 30 to 60 minutes at room temperature, and the cells were frozen on dry ice, lysed with 0.5 mL 50 mM HCl, and refrozen ([…]). The cAMP content of the diluted lysate was determined by radioimmunoassay. The EC50 response values were calculated using nonlinear regression (see below).
(§2) Data Calculation. Calculations were performed using Microsoft® Excel. Nonlinear regression analyses of binding and cAMP dose-response data were performed using the four-parameter equation: yp=Min+[(Max−Min)/(1+(IC50/x)^slope)]. The Excel Solver function was utilized for parameter optimization, as described previously (Carter, P. H., et al., Endocrinology 140: 4972-4981 (1999); Bowen, W. P., and Jerman, J. C., Trends in Pharmacol. Sci. 16: 413-417 (1995)). Differences between paired data sets were statistically evaluated using a one-tailed Student's t-test, assuming unequal variances for the two sets.
The effects of installing a direct covalent linkage between the side chains of the residues at positions 6 and 10 on PTH analog function were also assessed. To do this, paired Glu^6/Lys^10 or Lys^6/Glu^10 substitutions were introduced into an otherwise non-constrained PTH(1-14) analog scaffold AlaValAlaGluIleGln LeuMetHisGlnHarAlaLysTrp-amide (SEQ. ID. NO. 11) and formed an amide bond between the carboxylate side chain group of the introduced glutamate residue and the amino side chain group of the introduced lysine residue. For controls, a portion of each Glu/Lys- or Lys/Glu-substituted PTH(1-14) analog was preserved in the non-bridged form. The four peptides: [Glu^6, Lys^10]PTH(1-14)(linear)(SEQ. ID. NO. 24), [(Glu^6,Lys^10)lac.]PTH(1-14) cyclized via a 6-10 lactam bridge)(SEQ. ID. NO. 3), [Lys^6, Glu^10]PTH(1-14)(SEQ. ID. NO. 25), and [(Lys^6, Glu^10)lac.]PTH(1-14)(SEQ. ID. NO. 26) were first compared at a single dose of 10 μM for the capacity to stimulate cAMP formulation in HKRK-B28 cells, an LLC-PK1-derived cell line that expresses the recombinant full-length P1R at a moderate level (˜280,000 receptors per cell). […]

P1R-DelNt = molecular target: T2, P1R-DelNt (Homo sapiens, UniProt Q03431); experiment: cAMP stimulation in LdelNt-2 cells; details: for Emax: percent of maximum response of PTH(1-11)
T2 construct: expressed in transfected cells
T2 sequence (Q03431 with tags, fused parts or gaps limits assumed): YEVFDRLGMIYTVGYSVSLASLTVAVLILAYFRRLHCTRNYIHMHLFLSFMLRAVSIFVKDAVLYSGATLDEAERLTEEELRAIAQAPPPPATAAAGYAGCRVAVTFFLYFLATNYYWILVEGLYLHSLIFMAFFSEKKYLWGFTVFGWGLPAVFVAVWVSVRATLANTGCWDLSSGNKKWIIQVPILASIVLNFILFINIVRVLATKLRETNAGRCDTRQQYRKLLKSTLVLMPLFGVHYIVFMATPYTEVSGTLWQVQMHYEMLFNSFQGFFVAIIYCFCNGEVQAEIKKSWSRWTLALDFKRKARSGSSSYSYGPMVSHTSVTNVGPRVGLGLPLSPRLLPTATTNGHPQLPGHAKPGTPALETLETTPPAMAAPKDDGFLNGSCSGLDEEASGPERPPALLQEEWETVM
Protocol: as §1, §2
The two-domain hypothesis of the PTH-P1R interaction mechanism predicts that the effects of the substitutions at positions 6 and 10 observed with the above PTH(1-11) analogs involve interactions (direct or indirect) that occur within the juxtamembrane region of the receptor. To test this hypothesis, P1R-DelNt was utilized. P1R-DeNt is a P1R construct that is deleted for most of the N domain yet which retains nearly full capacity to be expressed on the cell surface and to stimulate cAMP formation in response to N-terminal PTH analogs, and an LLC-PK1-derived cell line was herein established, LdelNt-2, which stably expresses P1R-DelNt.

P1R = molecular target: T3, P1R (Homo sapiens, UniProt Q03431); experiment: cAMP stimulation in HKRK-B7 cells; details: for Emax: cAMP response, Table 1
T3 construct: expressed in transfected cells
T3 sequence (Q03431 27-593): T1 sequence (Q03431 27-593)
Protocol: as §1, §2
The functional effects of substitutions at positions 6 and 10 in PTH using a PTH(1-11) analog AlaValAlaGluIleGlnLeuMetHisGlnArg-amide as the scaffold peptide (SEQ. ID. NO. 8). The peptides were analyzed for the capacity to stimulate cAMP formation in HKRK-B7 cells, an LLC-PK1-derived cell line that expresses via stable transfection the recombinant human P1R at high density (˜950,000 receptors per cell).

CC[C@H](C)[C@H](NC(=O)[C@H](CCC(=O)O)NC(=O)[C@H](C)NC(=O)[C@@H](NC(=O)[C@H](C)N)C(C)C)C(=O)N[C@@H](CCC(N)=O)C(=O)N[C@@H](CC(C)C)C(=O)N[C@@H](CCSC)C(=O)N[C@@H](Cc1c[nH]cn1)C(=O)N[C@@H](CCC(N)=O)C(=O)N[C@@H](CCCCNC(=N)N)C(=O)N[C@@H](C)C(=O)N[C@@H](CCCCN)C(=O)N[C@@H](Cc1c[nH]c2ccccc12)C(N)=O [PTH(1-14) (SEQ. ID. NO. 11), [Ala^1,3,12,Gln^10,Har^11,Trp^14]PTH(1-14)amide] (H-AVAEIQLMHQ[hArg]AKW-NH2)
maximum cAMP response observed ([1]; n=3): 359±52 picomoles of cAMP per well | Emax [1]: 100 ± 2%

CC[C@H](C)[C@H](NC(=O)[C@H](CCC(=O)O)NC(=O)[C@H](C)NC(=O)[C@@H](NC(=O)[C@H](C)N)C(C)C)C(=O)N[C@H]1CCC(=O)NCCCC[C@@H](C(=O)N[C@@H](CCCCNC(=N)N)C(=O)N[C@@H](C)C(=O)N[C@@H](CCCCN)C(=O)N[C@@H](Cc2c[nH]c3ccccc23)C(N)=O)NC(=O)[C@H](Cc2c[nH]cn2)NC(=O)[C@H](CCSC)NC(=O)[C@H](CC(C)C)NC1=O [[(Glu^6, Lys^10)lac.]PTH(1-14), AlaValAlaGluIleGluLeuMetHisLysHarAlaLysTrp cyclized via a 6-10 lactam bridge] (H-AVAEIELMHK[hArg]AKW-NH2; lactam 6-10)
capacity to stimulate cAMP formation at a single dose [1]: comparable to that of its linear counterpart | Emax [1]: 52 ± 3%

CC[C@H](C)[C@H](NC(=O)[C@H](CCC(=O)O)NC(=O)[C@H](C)NC(=O)[C@@H](NC(=O)[C@H](C)N)C(C)C)C(=O)N[C@H]1CCCCNC(=O)CC[C@@H](C(=O)N[C@@H](CCCCNC(=N)N)C(=O)N[C@@H](C)C(=O)N[C@@H](CCCCN)C(=O)N[C@@H](Cc2c[nH]c3ccccc23)C(N)=O)NC(=O)[C@H](Cc2c[nH]cn2)NC(=O)[C@H](CCSC)NC(=O)[C@H](CC(C)C)NC1=O [[(Lys^6, Glu^10)lac.]PTH(1-14)] (H-AVAEIKLMHE[hArg]AKW-NH2; lactam 6-10)
capacity to stimulate cAMP formation at a single dose [1]: more active than its linear counterpart; also recorded: significantly (P<0.0001) greater than that elicited by the linear control | potency relative to linear [Lys^6, Glu^10]PTH(1-14) ([1]; dose-response analyses): six-fold more potent | Emax [1]: 59 ± 3%

CC[C@H](C)[C@H](NC(=O)[C@H](CCC(=O)O)NC(=O)[C@H](C)NC(=O)[C@@H](NC(=O)[C@H](C)N)C(C)C)C(=O)N[C@@H](CCC(=O)O)C(=O)N[C@@H](CC(C)C)C(=O)N[C@@H](CCSC)C(=O)N[C@@H](Cc1c[nH]cn1)C(=O)N[C@@H](CCCCN)C(=O)N[C@@H](CCCCNC(=N)N)C(=O)N[C@@H](C)C(=O)N[C@@H](CCCCN)C(=O)N[C@@H](Cc1c[nH]c2ccccc12)C(N)=O [[Glu^6, Lys^10]PTH(1-14)] (H-AVAEIELMHK[hArg]AKW-NH2)
Emax [1]: 52 ± 3%

CC[C@H](C)[C@H](NC(=O)[C@H](CCC(=O)O)NC(=O)[C@H](C)NC(=O)[C@@H](NC(=O)[C@H](C)N)C(C)C)C(=O)N[C@@H](CCCCN)C(=O)N[C@@H](CC(C)C)C(=O)N[C@@H](CCSC)C(=O)N[C@@H](Cc1c[nH]cn1)C(=O)N[C@@H](CCC(=O)O)C(=O)N[C@@H](CCCCNC(=N)N)C(=O)N[C@@H](C)C(=O)N[C@@H](CCCCN)C(=O)N[C@@H](Cc1c[nH]c2ccccc12)C(N)=O [[Lys^6, Glu^10]PTH(1-14)] (H-AVAEIKLMHE[hArg]AKW-NH2)
Emax [1]: 37 ± 5%

H-AVAEIALMHAR-NH2 [[Ala^6, Ala^10]PTH(1-11)]
potency relative to [Ala^6]PTH(1-11) (P1R-DelNt): two-fold lower | Emax (P1R-DelNt): 42 ± 5% | potency relative to [Ala^6]PTH(1-11) (P1R): two-fold greater | Emax (P1R): 41 ± 2%

H-AVAEIALMHQR-NH2 [[Ala^6]PTH(1-11)]
EC50/potency difference versus parent PTH(1-11) (P1R-DelNt): ~3 fold | Emax (P1R-DelNt): 14 ± 2% | Emax (P1R): 26 ± 2%

H-AVAEIQLMHAR-NH2 [[Ala^10]PTH(1-11)]
Emax (P1R-DelNt): 79 ± 5% | Emax (P1R): 88 ± 5%

H-AVAEIQLMHQR-NH2 [PTH(1-11)(SEQ. ID. NO. 8), AlaValAlaGluIleGlnLeuMetHisGlnArg-amide]
EC50/potency difference versus parent PTH(1-11) (P1R-DelNt): 22 fold | fold increase in cAMP formation/accumulation (P1R-DelNt): 55 fold | maximum cAMP response observed (P1R-DelNt; n=3): 113±4 pM of cAMP per well | Emax (P1R-DelNt): 100 ± 2% | fold increase in cAMP formation (P1R): 75 fold | Emax (P1R): 100 ± 3%
